Source: ChEMBL document CHEMBL3272309, “Potential central nervous system antitumor agents. Aziridinylbenzoquinones. 1” (J Med Chem, 1976)

Legend:
[1] = test system: Lewis lung carcinoma cell line; test: Antitumor activity against mouse LLC cells allografted in mouse assessed as mouse survival at 1 mg/kg, ip qd administered from day 5 to 15 post sc tumor-implantation relative to control; assay type: functional; settings: route subcutaneous
[2] = Therapeutic ratio, ratio of highest active dose to lowest active for antitumor activity against in ip dosed mouse allografted with mouse P388 cells; assay type: ADME, organism-based; settings: in vivo, read-out: TI
L1210 = test: Antitumor activity against mouse L1210 cells allografted in mouse assessed as change in body weight at 1.56 mg/kg, ip qd administered from day 1 to 9 post intracerebral tumor-implantation measured on day 5 relative to control; assay type: functional; settings: route intraperitoneal
Mus musculus [3] = test: Toxicity in mouse allografted with mouse ependymoblastoma cells at 4 mg/kg, ip qd administered from day 1 to 5 post intracerebral tumor-implantation; assay type: organism-based; set-up: dose 4 mg/kg, route intraperitoneal; settings: in vivo
Mus musculus [4] = test: Toxicity in mouse allografted with mouse ependymoblastoma cells at 8 mg/kg, ip qd administered from day 1 to 5 post intracerebral tumor-implantation; assay type: organism-based; set-up: dose 8 mg/kg, route intraperitoneal; settings: in vivo
[5] = Antitumor activity against mouse ependymoblastoma cells allografted in mouse assessed as mouse survival at 0.25 mg/kg, ip qd administered from day 1 to 5 post intracerebral tumor-implantation relative to control; assay type: functional; settings: route intraperitoneal
[6] = Antitumor activity against mouse ependymoblastoma cells allografted in mouse assessed as change in body weight at 0.5 mg/kg, ip qd administered from day 1 to 5 post intracerebral tumor-implantation measured on day 5 relative to control; assay type: functional; settings: route intraperitoneal
P388 = test: Antitumor activity against mouse P388 cells allografted in mouse assessed as mouse survival at 1.56 mg/kg, ip qd administered from day 1 to 9 post ip tumor-implantation relative to control; assay type: functional; settings: route intraperitoneal
B16 = test: Antitumor activity against mouse B16 cells allografted in mouse assessed as change in body weight at 3.12 mg/kg, ip qd administered from day 1 to 9 post ip tumor-implantation measured on day 5 relative to control; assay type: functional; settings: route intraperitoneal

CCOC(=O)NC1=C(N2CC2)C(=O)C(NC(=O)OCC)=C(N2CC2)C1=O [DIAZIQUONE]
T/C [1]: 89% | selectivity ratio [2]: 3 | Activity (L1210): -0.6 g | Activity (Mus musculus [3]): Toxic | Activity (Mus musculus [4]): Toxic | T/C [5]: 130% | Activity [6]: -1.8 g | T/C (P388): 212% | Activity (B16): -2.7 g
